The text below walks through data of patent US6630496B1, “Inhibitors of phospholipase enzymes” (Genetics Institute LLC, priority 1996, dated 2003).

As a reminder, the IC50 is the concentration at which inhibition is half-maximal.

pIC50: −log10 of the molar value. Values joined by “and” are separate entries in the source; they are usually repeats but may differ in a detail not shown here. Equal values may be shown once.

For experiment [1], the target named is T1, cPLA2 (Homo sapiens, UniProt P47712).
T1 sequence (P47712 1-749): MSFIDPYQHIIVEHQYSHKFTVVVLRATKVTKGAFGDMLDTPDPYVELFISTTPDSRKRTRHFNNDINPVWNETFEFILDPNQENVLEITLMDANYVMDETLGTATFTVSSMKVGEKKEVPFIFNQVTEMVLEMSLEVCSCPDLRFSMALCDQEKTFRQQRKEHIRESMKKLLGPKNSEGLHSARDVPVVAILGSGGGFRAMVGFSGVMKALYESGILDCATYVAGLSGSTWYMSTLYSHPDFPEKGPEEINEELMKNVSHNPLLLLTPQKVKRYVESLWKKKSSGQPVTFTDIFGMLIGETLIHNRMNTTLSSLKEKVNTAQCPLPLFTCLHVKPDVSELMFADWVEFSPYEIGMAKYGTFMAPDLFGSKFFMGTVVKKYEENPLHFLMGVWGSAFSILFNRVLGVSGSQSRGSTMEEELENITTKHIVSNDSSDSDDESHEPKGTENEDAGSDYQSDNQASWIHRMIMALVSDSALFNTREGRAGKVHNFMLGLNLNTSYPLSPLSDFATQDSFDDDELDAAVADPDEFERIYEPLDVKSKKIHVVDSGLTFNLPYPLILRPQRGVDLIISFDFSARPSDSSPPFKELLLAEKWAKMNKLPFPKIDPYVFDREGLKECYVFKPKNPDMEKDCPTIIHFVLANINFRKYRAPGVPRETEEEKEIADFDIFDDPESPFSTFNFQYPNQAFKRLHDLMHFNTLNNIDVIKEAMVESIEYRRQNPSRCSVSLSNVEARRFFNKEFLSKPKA
Kind of experiment: Coumarine assay (7-hydroxycoumarinyl 6-heptenoate hydrolysis). The format is biochemical. The settings on record: 60 μM 7-hydroxycoumarinyl 6-heptenoate; read-out: IC50 (μM) Coumarine. How it is done: (§1) 7-hydroxycoumarinyl 6-heptenoate was used as a monomeric substrate for cPLA2 as reported previously (Huang, Z. et al., 1994, Analytical Biochemistry 222, 110-115). Inhibitors were mixed with 200 μL assay buffer (80 mM Hepes, pH 7.5, 1 mM EDTA) containing 60 μM 7-hydroxycoumarinyl 6-heptenoate. The reaction was initiated by adding 4 μg cPLA2 in 50 μL assay buffer. Hydrolysis of the 7-hydroxycoumarinyl 6-heptenoate ester was monitored in a fluorometer by exciting at 360 nm and monitoring emission at 460 nm. Enzyme activity is proportional to the increasein emission at 460 nm per minute. In the presence of a cPLA2 inhibitor, the rate of increase is less.

Experiment [2] concerns the target T1, cPLA2. The experiment is described as follows: Soluble substrate assay (LysoPC). The format is biochemical. The conditions noted are these: NA = inhibitory activity not detected; read-out: IC50 (μM) Lyso PC. How it is done: (b) Soluble Substrate Assay (LysoPC)
The lipid was resuspended by vortexing 80 mM Hepes pH 7.5, 1 mM EDTA (1.2×final concentration). A typical assay consisted of lipid suspension (85 μl) to which was added consecutively the inhibitor (5 μl in DMSO) and cPLA2, 200 ng in 80 mM Hepes pH 7.5, 2 mM DTT and […]. This assay was conducted by either the manual assay or automated assay protocol described below.

The subject of experiment [3] is carrageenan-induced footpad edema. Kind of experiment: Rat carrageenan-induced footpad edema test. Type of experiment: in vivo. The settings on record: iv, 1 mg/ml, 5 ml/kg, male Sprague Dawley rats, footpad volume 3 hours after carrageenan, read-out: % inhibition of rat carrageenan-induced footpad edema. The procedure: Compounds of the present invention were also tested for in vivo activity in a rat paw edema test according to the procedure described in Example 89.
Rat Carrageenan-Induced Footpad Edema Test
Each compound was suspended in 0.3 ml absolute ethanol, 0.1 ml Tween-80 and 2.0 ml Dulbecco's PBS (without calcium or magnesium). To this mixture, 0.1 ml 1N NaOH was added. After solution was complete, additional amounts of PBS were added to adjust the concentration to 1 mg/ml. All comounds remained in solution. Compounds were administered i.v. in a volumne of 5 ml/kg to male Sprague Dawley rats at the same time that edema was induced by injection of 0.05 ml of 1% Type IV carrageenan into the hind footpad. Footpad volume was measured before dosing with compound and 3 hours after dosing with carageenan.
For orientation: Carrageenan injected into the paw causes an acute inflammation.

The target of experiment [4] is T1, cPLA2. Kind of experiment: Activity assay of Example 136 (Table VIII; sub-assay not stated). Type of experiment: biochemical. The settings on record: for pIC50: concentration paired with 50 percent inhibition, read-out: CONCENTRATION (micromolar) @ PERCENT INHIBITION 50. How it is done: Activity data for the compounds of Examples 88-135 are reported in Table VIII (assay described in Example 136).
1-palmitoyl-2-V^14C] arachidonyl phosphotidylcholine (58 mCi/mmol) (final concentration 6 μM) and 1,2-dioleyolglycerol (final concentration 3 μM) were mixed and dried under a stream of nitrogen. To the lipids was added 50 mM Hepes pH 7.5 (2×final concentration of lipids) and the suspension was sonicated for 3 min. at 4° C. To the suspension was added 50 mM Hepes pH 7.5, 300 mM NaCl, 2 mM DTT, 2 mM CaCl2 and 2 mg/ml bovine serum albumin (BSA) (Sigma A7511) (1.2×final concentration of lipids). A typical assay consisted of the lipid mixture (85 μl) to which was added consecutively, the inhibitor (5 μl in DMSO) and cPLA2, 10 ng for an automated system or 1 ng for a manual assay, in 10 μl of the BSA buffer. This assay was conducted by either the manual assay or automated assay protocol described below.
1-[^14C]-palmitoyl-2-hydroxyphosphotidyl-choline (57 mCi/mmol) (final concentration 4.4 μM) was dried under a stream of nitrogen. The lipid was resuspended by vortexing 80 mM Hepes pH 7.5, 1 mM EDTA (1.2×final concentration). A typical assay consisted of lipid suspension (85 μl) to which was added consecutively the inhibitor (5 μl in DMSO) and cPLA2, 200 ng in 80 mM Hepes pH 7.5, 2 mM DTT and […]. This assay was conducted by either the manual assay or automated assay protocol described below.
RBL-2H3 cells were routinely cultured as 37° C. in a 5% CO2 atmosphere in minimal essential medium containing nonessential amino acids and 12% fetal calf serum. The day before the experiment, cells were seeded into spinner flasks at 3×10^5 cells/ml and 100 ng/ml DNP specific-IgE was added. After 20 hrs, the cells were harvested by centrifugation and washed once in serum-free minimal essential media, and resuspended to 2×10^6 cells/ml in serum free media. The cells were then preincubated with either inhibitor in DMSO (1% v/v) or DMSO (1% v/v) for 15 min at 37° C. followed by stimulation with DNP-BSA (300 ng/ml). After 6 min, the cells were removed by centrifugation, and the supernatant was assayed for PGD2 content in accordance with known methods.
as §1

On to `O=C(CSCC1Cc2cc(OCc3ccccc3)ccc2N1Cc1ccc(C(F)(F)F)cc1C(F)(F)F)Nc1cccc(C(=O)O)c1` (stereo not shown) [Example 74], for which the results for the IC50 at cPLA2 [1] and on cPLA2 [2] were 5 µM and 1.1 µM, respectively.

For the compound `COc1ccc(C(=O)O)cc1NC(=O)CSCC1Cc2cc(OCc3ccccc3)ccc2N1Cc1ccc(C(F)(F)F)cc1C(F)(F)F` (stereo not shown) [Example 75], the results for the IC50 on cPLA2 [1] and at cPLA2 [2] were 6.2 µM and 7 µM, respectively.

As for `O=C(O)c1ccccc1SCC1Cc2cc(OCc3ccccc3)ccc2N1Cc1ccc2ccccc2c1` (stereo not shown) [Example 76], on cPLA2 [1], the IC50 is 4.5 µM. The inhibition in vivo at 1000 µg/mL, 5 mg/kg in experiment [3] amounted to 8.2%.

For the compound `O=C(O)c1ccc(CN2c3ccc(OCc4ccccc4)cc3CC2COCc2ccc3ccccc3c2)cc1` (stereo not shown) [Example 81], the IC50 on cPLA2 [1] was determined as 15 µM; at cPLA2 [2], 3.2 µM.

For the compound `O=C(O)c1cc(NC(=O)C2Cc3ccccc3N2Cc2ccc(C(F)(F)F)cc2C(F)(F)F)cc(C(=O)O)c1` (stereo not shown) [Example 83], the IC50 on cPLA2 [1] and at cPLA2 [2] was more than 50 µM each time.

`CS(=O)(=O)NC(=O)C1Cc2ccccc2N1Cc1ccc(C(F)(F)F)cc1C(F)(F)F` (stereo not shown) [Example 84, N-Methylsulfonyl-2-(1-(2,4-bis(trifluoromethyl)benzyl)indolinyl)carboxamide]: the IC50 at cPLA2 [1] is more than 50 µM; on cPLA2 [2], 23 µM.

Turning to `O=C(NS(=O)(=O)c1ccccc1)C1Cc2ccccc2N1Cc1ccc(C(F)(F)F)cc1C(F)(F)F` (stereo not shown) [Example 85], the results for the IC50 at cPLA2 [1] and at cPLA2 [2] were more than 50 µM and 21 µM, respectively.

As for `O=C(O)c1ccc(CN2C(=O)S/C(=C/c3cc4cc(OCc5ccccc5)ccc4n3Cc3ccc(COc4cc(C(F)(F)F)cc(C(F)(F)F)c4)cc3)C2=O)cc1` [Example 88, 4-[(5-{(E)[5-(Benzyloxy)-1-(4-{[3,5-bis(trifluoromethyl)phenoxyl]methyl}benzyl)-1H-indol-2-yl]methylidene}-2,4-dioxo-1,3-thiazolan-3-yl)methyl]benzoic Acid], the pIC50 at cPLA2 [4] was 5.52.

As for `O=C1NC(=O)/C(=C\c2cc3cc(OCc4ccccc4)ccc3n2Cc2ccc(Cc3ccccc3)cc2)S1` [Example 93, 5-{(E)-[1-(4-Benzylbenzyl)-5-(benzyloxy)-1H-indol-2-yl]methylidene}-1,3-thiazolane-2,4-dione], on cPLA2 [4] (12.5 micromolar), the “PERCENT INHIBITION @ CONCENTRATION 12.5 micromolar” value stood at 55%. Also, the pIC50 on cPLA2 [4] is 4.90.

Consider `O=C(O)CN1C(=O)S/C(=C/c2cc3cc(OCc4ccccc4)ccc3n2Cc2ccc(COc3cc(C(F)(F)F)cc(C(F)(F)F)c3)cc2)C1=O` [Example 96, 2-(5-{(E)-[5-(Benzyloxy)-1-(4-{[3,5-bis(trifluoromethyl)phenoxy]methyl}benzyl)-1H-indol-2-yl]methylidene}-2,4-dioxo-1,3-thiazolan-3-yl)acetic Acid], for which, on cPLA2 [4], the pIC50 is 5.30.

Take `O=C(O)c1ccc(CN2C(=O)S/C(=C/c3cc4cc(OCc5ccccc5)ccc4n3Cc3ccc(Cl)cc3)C2=O)cc1` [Example 97, 4-[(5-{(E)-[5-(Benzyloxy)-1-(4-chlorobenzyl)-1H-indol-2yl]methylidene}2,4-dioxo-1,3-thiazolan-3-yl)methyl]benzoic Acid]: the pIC50 at cPLA2 [4] was 5.35.

`O=C1NC(=S)S/C1=C/c1cc2cc(OCc3ccccc3)ccc2n1Cc1ccc(C(F)(F)F)cc1C(F)(F)F` [Example 101, 5-((E)-{5-(Benzyloxy)-1-[2,4-bis(trifluoromethyl)benzyl]-1H-indol-2-yl}methylidene)-2-thioxo-1,3-thiazolan-4-one]: the pIC50 at cPLA2 [4] is 5.00.

Turning to `O=C(O)c1ccc(CN2C(=O)/C(=C\c3cc4cc(OCc5ccccc5)ccc4n3Cc3ccc(C(F)(F)F)cc3C(F)(F)F)SC2=S)cc1` [Example 107, 4-{[5-((E)-{5-(Benzyloxy)-1-[2,4-bis(trifluoromethyl)benzyl]-1H-indol-2-yl}methylidene)-4-oxo-2-thioxo-1,3-thiazolan-3-yl]methyl}benzoic Acid], on cPLA2 [4], the pIC50 is 5.42.

With `O=C(O)c1cc2cc(-c3cc4ccccc4o3)ccc2n1Cc1ccccc1` [Example 110, 5-(1-Benzofuran-2-yl)-1-benzyl-1H-indole-2-carboxylic Acid], the pIC50 at cPLA2 [4] is 4.30.

`O=C(O)c1cc2cc(-c3ccc(F)cc3)ccc2n1Cc1ccccc1` [Example 111, 1-Benzyl-5-(4-fluorophenyl)-1H-indole-2-carboxylic Acid]: on cPLA2 [4], the pIC50 was 4.89.

`COc1cccc(-c2ccc3c(c2)cc(C(=O)O)n3Cc2ccccc2)c1` [Example 112, 1-Benzyl-5-(3-methoxyphenyl)-1H-indole-2-carboxylic Acid]: the “PERCENT INHIBITION @ CONCENTRATION 25 micromolar” value at cPLA2 [4] (25 micromolar) is on record as 32%. Also, the “PERCENT INHIBITION @ CONCENTRATION 50 micromolar” value on cPLA2 [4] was found to be 46%.

In the case of `O=C(O)c1cc2cc(-c3ccccc3)ccc2n1Cc1ccccc1` [Example 113, 1-Benzyl-5-phenyl-1H-indole-2-carboxylic Acid], at cPLA2 [4], the pIC50 was 3.77.

In the case of `O=C(O)c1cc(NC(=O)c2cc3cc(OCc4ccccc4)ccc3n2Cc2ccccc2)cc(C(=O)O)c1` [Example 123, 5-({[1-Benzyl-5-(benzyloxy)-1H-indol-2-yl]carbonyl}amino)isophthalic Acid], at cPLA2 [4], the “PERCENT INHIBITION @ CONCENTRATION 50 micromolar” value is 31% and 25%.

On to `O=C(O)/C=C/c1cc2cc(OCc3ccccc3)ccc2n1Cc1ccc(C(F)(F)F)cc1C(F)(F)F` [Example 125], for which the pIC50 on cPLA2 [4] was 4.64.

As to `CC(=O)c1c(CSCC(=O)O)n(Cc2ccc(C(=O)c3nc4ccccc4s3)cc2)c2ccc(OCc3ccccc3)cc12` [Example 133], the pIC50 on cPLA2 [4] is 5.07.

For `CC(=O)c1c(CSc2ccccc2C(=O)O)n(Cc2ccc(C(=O)c3nc4ccccc4s3)cc2)c2ccc(OCc3ccccc3)cc12` [Example 134], the pIC50 on cPLA2 [4] is 5.46.

For `CC(=O)c1c(COc2ccc(C(=O)O)cc2)n(Cc2ccc(C(=O)c3nc4ccccc4s3)cc2)c2ccc(OCc3ccccc3)cc12` [Example 135], on cPLA2 [4], the pIC50 was 5.05.
